Test results as given in ChEMBL document CHEMBL4507281, “Data for DCP probe BI-4394” (2021).

Experiments:
[1] = molecular target: Serine/threonine-protein kinase RIO2 (Homo sapiens) (UniProt Q9BVS4); settings: Compound concentration 100.0 nM
[2] = tested on: Tyrosine-protein kinase ABL1 (Homo sapiens), P00519 [Y253F]; settings: Compound concentration 100.0 nM
[3] = tested on: Receptor-type tyrosine-protein kinase FLT3 (Homo sapiens), P36888 [K663Q]; settings: Compound concentration 100.0 nM
[4] = molecular target: Protein-tyrosine kinase 2-beta (Homo sapiens) (UniProt Q14289); settings: Compound concentration 100.0 nM
[5] = tested on: Mast/stem cell growth factor receptor Kit (Homo sapiens), P10721 [A829P]; settings: Compound concentration 100.0 nM
[6] = molecular target: Mitogen-activated protein kinase 13 (Homo sapiens) (UniProt O15264); settings: Compound concentration 100.0 nM
[7] = molecular target: 3-phosphoinositide-dependent protein kinase 1 (Homo sapiens) (UniProt O15530); settings: Compound concentration 100.0 nM
D(1B) dopamine receptor = D(1B) dopamine receptor (Homo sapiens, UniProt P21918); test: GPCRScan assay: inhibition of D5; parameters: radioligand conc. used [nm] 2.0 – 3.0, parental cells HEKT
[8] = molecular target: Receptor-type tyrosine-protein kinase FLT3 (Homo sapiens) (UniProt P36888); settings: Compound concentration 100.0 nM
[9] = molecular target: Serine/threonine-protein kinase PLK4 (Homo sapiens) (UniProt O00444); settings: Compound concentration 100.0 nM
[10] = molecular target: Non-receptor tyrosine-protein kinase TYK2 (Homo sapiens) (UniProt P29597); settings: Compound concentration 100.0 nM
[11] = molecular target: Ephrin type-A receptor 8 (Homo sapiens) (UniProt P29322); settings: Compound concentration 100.0 nM
[12] = molecular target: Serine/threonine-protein kinase MARK1 (Homo sapiens) (UniProt Q9P0L2); settings: Compound concentration 100.0 nM
[13] = molecular target: SNF-related serine/threonine-protein kinase (Homo sapiens) (UniProt Q9NRH2); settings: Compound concentration 100.0 nM
[14] = molecular target: Serine/threonine-protein kinase PAK 3 (Homo sapiens) (UniProt O75914); settings: Compound concentration 100.0 nM
[15] = molecular target: T1, Tyrosine-protein kinase JAK3 (Homo sapiens) (UniProt P52333); settings: Compound concentration 100.0 nM
T1 sequence (whole entry): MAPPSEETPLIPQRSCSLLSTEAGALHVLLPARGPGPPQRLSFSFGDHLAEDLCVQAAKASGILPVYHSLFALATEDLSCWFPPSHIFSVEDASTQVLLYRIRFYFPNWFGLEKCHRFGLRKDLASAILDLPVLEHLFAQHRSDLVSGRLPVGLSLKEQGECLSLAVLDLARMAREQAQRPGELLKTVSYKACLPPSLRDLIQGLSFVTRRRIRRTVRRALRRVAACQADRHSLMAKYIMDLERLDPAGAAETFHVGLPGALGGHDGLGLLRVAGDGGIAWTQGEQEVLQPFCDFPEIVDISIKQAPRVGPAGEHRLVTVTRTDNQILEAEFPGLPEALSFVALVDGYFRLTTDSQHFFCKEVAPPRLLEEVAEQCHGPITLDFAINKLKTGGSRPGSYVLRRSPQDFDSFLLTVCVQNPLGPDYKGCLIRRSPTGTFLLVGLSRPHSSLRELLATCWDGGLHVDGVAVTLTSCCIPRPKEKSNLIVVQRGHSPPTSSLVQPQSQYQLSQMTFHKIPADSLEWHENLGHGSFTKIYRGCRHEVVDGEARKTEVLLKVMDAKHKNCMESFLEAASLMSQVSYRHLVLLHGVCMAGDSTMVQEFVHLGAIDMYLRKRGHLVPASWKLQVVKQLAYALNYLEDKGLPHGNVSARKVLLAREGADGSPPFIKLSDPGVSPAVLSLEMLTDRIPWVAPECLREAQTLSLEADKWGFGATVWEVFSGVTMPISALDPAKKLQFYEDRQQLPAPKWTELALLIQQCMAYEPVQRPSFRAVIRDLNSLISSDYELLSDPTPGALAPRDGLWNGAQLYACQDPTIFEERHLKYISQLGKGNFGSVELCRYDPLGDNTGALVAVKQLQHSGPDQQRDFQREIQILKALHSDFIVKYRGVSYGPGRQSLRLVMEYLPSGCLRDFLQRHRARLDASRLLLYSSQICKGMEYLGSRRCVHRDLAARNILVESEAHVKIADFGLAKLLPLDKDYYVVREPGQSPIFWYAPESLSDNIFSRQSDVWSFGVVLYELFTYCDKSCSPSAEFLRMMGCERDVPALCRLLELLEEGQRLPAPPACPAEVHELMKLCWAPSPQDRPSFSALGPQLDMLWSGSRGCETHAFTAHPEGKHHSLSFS

[16] = molecular target: Dual specificity protein kinase CLK2 (Homo sapiens) (UniProt P49760); settings: Compound concentration 100.0 nM
[17] = molecular target: Tyrosine-protein kinase JAK1 (Homo sapiens) (UniProt P23458); settings: Compound concentration 100.0 nM
[18] = molecular target: Phosphorylase b kinase gamma catalytic chain, skeletal muscle/heart isoform (Homo sapiens) (UniProt Q16816); settings: Compound concentration 100.0 nM
[19] = molecular target: Cyclin-dependent kinase 19 (Homo sapiens) (UniProt Q9BWU1); settings: Compound concentration 100.0 nM
[20] = molecular target: Death-associated protein kinase 1 (Homo sapiens) (UniProt P53355); settings: Compound concentration 100.0 nM
[21] = molecular target: Serine/threonine-protein kinase 3 (Homo sapiens) (UniProt Q13188); settings: Compound concentration 100.0 nM
[22] = tested on: Tyrosine-protein kinase ABL1 (Homo sapiens), P00519 [H396P]; settings: Compound concentration 100.0 nM
[23] = molecular target: Serine/threonine-protein kinase TNNI3K (Homo sapiens) (UniProt Q59H18); settings: Compound concentration 100.0 nM
[24] = molecular target: Cyclin-dependent kinase 5 (Homo sapiens) (UniProt Q00535); settings: Compound concentration 100.0 nM
[25] = tested on: Tyrosine-protein kinase ABL1 (Homo sapiens), P00519 [E255K]; settings: Compound concentration 100.0 nM
[26] = molecular target: Serine/threonine-protein kinase Sgk2 (Homo sapiens) (UniProt Q9HBY8); settings: Compound concentration 100.0 nM
[27] = molecular target: Vascular endothelial growth factor receptor 2 (Homo sapiens) (UniProt P35968); settings: Compound concentration 100.0 nM
[28] = molecular target: Mitogen-activated protein kinase kinase kinase 5 (Homo sapiens) (UniProt Q99683); settings: Compound concentration 100.0 nM
[29] = molecular target: Epithelial discoidin domain-containing receptor 1 (Homo sapiens) (UniProt Q08345); settings: Compound concentration 100.0 nM

Chain of D(1B) dopamine receptor (P21918 whole entry): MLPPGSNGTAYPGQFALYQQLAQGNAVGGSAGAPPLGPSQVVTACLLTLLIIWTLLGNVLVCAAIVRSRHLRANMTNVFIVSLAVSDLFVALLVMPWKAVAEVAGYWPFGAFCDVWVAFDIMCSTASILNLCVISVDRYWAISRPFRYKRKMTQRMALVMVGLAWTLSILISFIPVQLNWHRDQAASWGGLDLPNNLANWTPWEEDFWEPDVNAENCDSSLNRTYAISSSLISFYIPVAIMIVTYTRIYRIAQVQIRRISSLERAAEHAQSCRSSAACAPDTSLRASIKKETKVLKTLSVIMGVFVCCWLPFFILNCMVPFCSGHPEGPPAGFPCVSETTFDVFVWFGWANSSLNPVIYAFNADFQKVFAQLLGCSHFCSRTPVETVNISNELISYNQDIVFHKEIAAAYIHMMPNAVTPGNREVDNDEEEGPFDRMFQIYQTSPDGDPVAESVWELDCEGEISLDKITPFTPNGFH
Chain of Serine/threonine-protein kinase 3 (Homo sapiens) (Q13188 whole entry): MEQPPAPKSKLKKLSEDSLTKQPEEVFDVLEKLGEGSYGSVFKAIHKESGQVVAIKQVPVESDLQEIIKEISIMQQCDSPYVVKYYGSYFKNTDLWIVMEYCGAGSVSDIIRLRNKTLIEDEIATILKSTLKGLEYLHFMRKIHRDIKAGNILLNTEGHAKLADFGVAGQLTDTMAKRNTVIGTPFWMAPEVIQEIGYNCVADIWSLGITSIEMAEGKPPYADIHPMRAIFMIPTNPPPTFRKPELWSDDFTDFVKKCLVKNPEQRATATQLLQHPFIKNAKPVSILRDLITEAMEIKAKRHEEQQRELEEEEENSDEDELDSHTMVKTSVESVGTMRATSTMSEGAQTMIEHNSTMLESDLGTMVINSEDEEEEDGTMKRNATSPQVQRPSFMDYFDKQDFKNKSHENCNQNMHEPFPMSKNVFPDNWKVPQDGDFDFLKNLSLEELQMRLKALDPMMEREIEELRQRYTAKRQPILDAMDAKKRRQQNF
Chain of Dual specificity protein kinase CLK2 (Homo sapiens) (P49760 whole entry, looked up): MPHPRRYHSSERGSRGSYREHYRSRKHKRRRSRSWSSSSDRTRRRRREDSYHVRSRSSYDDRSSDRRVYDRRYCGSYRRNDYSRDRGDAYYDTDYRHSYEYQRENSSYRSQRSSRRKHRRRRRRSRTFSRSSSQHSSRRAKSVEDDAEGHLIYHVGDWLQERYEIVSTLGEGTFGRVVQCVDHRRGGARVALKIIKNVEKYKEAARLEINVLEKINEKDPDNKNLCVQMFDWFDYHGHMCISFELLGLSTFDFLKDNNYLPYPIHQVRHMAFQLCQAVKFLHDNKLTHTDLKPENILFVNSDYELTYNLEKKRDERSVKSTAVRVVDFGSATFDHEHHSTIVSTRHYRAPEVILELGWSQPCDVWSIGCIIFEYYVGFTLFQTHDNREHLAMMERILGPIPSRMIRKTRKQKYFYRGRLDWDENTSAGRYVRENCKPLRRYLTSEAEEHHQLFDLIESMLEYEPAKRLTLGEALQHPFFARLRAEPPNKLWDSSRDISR
Chain of Serine/threonine-protein kinase PLK4 (Homo sapiens) (O00444 whole entry): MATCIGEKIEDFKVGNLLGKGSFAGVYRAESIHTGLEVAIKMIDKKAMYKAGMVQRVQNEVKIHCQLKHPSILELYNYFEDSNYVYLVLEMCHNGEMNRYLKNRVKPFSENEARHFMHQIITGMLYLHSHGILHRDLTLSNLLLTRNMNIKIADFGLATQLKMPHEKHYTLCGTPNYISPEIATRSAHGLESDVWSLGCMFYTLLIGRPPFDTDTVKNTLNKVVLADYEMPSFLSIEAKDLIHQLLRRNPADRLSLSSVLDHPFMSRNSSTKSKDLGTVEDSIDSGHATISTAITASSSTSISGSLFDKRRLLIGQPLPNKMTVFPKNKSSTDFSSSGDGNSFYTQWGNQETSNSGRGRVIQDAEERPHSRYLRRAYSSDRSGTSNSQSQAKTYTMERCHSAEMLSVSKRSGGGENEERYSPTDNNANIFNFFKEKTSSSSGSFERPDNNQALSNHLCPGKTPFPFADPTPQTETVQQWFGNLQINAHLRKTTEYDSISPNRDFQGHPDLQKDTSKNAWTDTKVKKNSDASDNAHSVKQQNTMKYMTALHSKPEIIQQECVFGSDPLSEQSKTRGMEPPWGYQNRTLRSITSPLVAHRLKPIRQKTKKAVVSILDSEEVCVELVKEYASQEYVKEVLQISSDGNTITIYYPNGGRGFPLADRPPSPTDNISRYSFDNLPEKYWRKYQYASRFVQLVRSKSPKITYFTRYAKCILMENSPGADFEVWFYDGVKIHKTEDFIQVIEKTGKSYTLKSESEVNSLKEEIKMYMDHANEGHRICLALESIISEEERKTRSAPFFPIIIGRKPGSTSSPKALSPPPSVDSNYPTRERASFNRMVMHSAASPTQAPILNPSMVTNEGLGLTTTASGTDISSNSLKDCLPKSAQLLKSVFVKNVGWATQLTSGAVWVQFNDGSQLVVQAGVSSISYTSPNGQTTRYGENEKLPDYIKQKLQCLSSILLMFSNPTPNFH
Chain of Mitogen-activated protein kinase kinase kinase 5 (Homo sapiens) (Q99683 whole entry, the tested form may be a part): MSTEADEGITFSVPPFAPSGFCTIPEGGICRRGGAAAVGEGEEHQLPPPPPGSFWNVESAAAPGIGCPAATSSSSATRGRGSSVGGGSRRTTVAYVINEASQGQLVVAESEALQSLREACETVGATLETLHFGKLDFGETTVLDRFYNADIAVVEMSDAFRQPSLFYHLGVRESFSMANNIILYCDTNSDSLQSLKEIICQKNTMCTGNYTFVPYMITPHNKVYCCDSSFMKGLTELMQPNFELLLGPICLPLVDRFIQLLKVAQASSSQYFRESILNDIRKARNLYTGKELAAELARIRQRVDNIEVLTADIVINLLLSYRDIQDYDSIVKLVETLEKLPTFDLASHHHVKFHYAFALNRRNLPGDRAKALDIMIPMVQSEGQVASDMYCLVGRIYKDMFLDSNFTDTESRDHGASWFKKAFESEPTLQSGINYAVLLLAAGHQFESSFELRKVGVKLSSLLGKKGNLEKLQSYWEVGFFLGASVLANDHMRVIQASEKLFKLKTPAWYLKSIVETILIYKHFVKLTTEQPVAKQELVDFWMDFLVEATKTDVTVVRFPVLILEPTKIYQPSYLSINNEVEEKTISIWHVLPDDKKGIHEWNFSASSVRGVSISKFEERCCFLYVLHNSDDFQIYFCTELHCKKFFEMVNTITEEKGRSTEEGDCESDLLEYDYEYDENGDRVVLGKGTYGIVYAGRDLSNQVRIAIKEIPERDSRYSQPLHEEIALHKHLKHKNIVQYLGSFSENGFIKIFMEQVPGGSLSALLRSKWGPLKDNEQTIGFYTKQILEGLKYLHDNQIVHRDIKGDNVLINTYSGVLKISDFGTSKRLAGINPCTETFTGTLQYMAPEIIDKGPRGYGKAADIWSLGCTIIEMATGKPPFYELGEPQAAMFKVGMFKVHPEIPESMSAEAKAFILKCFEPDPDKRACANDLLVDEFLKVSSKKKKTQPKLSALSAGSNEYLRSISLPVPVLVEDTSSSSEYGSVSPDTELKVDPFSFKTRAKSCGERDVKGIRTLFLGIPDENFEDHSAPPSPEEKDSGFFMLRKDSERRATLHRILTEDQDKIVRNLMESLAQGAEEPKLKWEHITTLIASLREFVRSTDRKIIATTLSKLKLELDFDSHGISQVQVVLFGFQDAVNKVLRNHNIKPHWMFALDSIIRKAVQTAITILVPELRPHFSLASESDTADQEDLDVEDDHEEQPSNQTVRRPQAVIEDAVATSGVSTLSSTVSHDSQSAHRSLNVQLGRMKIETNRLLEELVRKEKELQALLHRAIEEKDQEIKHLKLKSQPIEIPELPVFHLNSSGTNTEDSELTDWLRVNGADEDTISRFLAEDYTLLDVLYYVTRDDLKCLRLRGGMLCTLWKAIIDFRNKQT
Chain of Serine/threonine-protein kinase PAK 3 (Homo sapiens) (O75914 whole entry, looked up): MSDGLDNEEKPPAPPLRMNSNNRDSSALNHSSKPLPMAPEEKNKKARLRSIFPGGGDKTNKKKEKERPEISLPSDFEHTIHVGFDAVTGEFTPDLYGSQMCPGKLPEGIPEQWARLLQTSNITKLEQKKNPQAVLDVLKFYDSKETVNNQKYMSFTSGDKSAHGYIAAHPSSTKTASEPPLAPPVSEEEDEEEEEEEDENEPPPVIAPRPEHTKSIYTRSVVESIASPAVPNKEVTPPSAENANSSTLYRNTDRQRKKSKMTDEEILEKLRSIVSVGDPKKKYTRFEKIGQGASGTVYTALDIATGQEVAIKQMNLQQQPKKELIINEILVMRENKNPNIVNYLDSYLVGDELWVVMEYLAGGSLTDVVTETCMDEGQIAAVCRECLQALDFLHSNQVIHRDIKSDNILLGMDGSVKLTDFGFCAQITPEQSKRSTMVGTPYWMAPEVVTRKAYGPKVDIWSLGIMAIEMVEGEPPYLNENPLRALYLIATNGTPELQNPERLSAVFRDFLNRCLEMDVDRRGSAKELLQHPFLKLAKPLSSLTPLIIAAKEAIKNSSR
Chain of Serine/threonine-protein kinase Sgk2 (Homo sapiens) (Q9HBY8 whole entry): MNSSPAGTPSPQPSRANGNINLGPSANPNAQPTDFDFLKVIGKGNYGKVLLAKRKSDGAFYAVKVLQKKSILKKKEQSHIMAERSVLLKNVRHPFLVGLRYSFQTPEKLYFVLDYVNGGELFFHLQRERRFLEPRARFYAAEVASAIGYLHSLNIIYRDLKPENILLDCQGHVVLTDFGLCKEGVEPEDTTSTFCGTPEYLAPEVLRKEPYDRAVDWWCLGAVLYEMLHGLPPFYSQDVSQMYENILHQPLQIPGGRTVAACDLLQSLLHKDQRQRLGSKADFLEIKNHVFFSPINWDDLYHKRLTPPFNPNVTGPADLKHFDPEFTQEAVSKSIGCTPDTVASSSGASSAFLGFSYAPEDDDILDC
Chain of Cyclin-dependent kinase 5 (Homo sapiens) (Q00535 whole entry, looked up): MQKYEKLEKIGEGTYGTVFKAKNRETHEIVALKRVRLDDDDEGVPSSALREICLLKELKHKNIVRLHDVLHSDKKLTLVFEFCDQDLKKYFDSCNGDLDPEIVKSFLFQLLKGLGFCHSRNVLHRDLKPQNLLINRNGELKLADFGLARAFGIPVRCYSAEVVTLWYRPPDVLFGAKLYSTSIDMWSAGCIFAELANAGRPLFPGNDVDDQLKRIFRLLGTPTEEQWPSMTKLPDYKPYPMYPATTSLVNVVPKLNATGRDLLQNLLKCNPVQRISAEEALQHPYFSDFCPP

SMILES: CCOC(=O)c1cc2cc(-c3cc(C(=O)NCc4ccc(C(=O)O)cc4)nn3C)ccc2[nH]1 [BI 4394]
- residual activity [1]: 100%
- residual activity [2]: 93%
- residual activity [3]: 90%
- residual activity [4]: 100%
- residual activity [5]: 95%
- residual activity [6]: 100%
- residual activity [7]: 92%
- Ki (D(1B) dopamine receptor): 10 µM
- residual activity [8]: 90%
- residual activity [9]: 82%
- residual activity [10]: 90%
- residual activity [11]: 100%
- residual activity [12]: 76%
- residual activity [13]: 80%
- residual activity [14]: 77%
- residual activity [15]: 82%
- residual activity [16]: 96%
- residual activity [17]: 100%
- residual activity [18]: 100%
- residual activity [19]: 0%
- residual activity [20]: 84%
- residual activity [21]: 96%
- residual activity [22]: 85%
- residual activity [23]: 100%
- residual activity [24]: 94%
- residual activity [25]: 88%
- residual activity [26]: 100%
- residual activity [27]: 81%
- residual activity [28]: 98%
- residual activity [29]: 100%

SMILES: Cn1nc(C(=O)NCc2ccc(C(=O)O)cc2)cc1-c1ccc2[nH]ccc2c1 [BI 4395]
- residual activity [1]: 100%
- residual activity [2]: 100%
- residual activity [3]: 86%
- residual activity [4]: 96%
- residual activity [5]: 72%
- residual activity [6]: 91%
- residual activity [7]: 100%
- Ki (D(1B) dopamine receptor): 10 µM
- residual activity [8]: 86%
- residual activity [9]: 61%
- residual activity [10]: 82%
- residual activity [11]: 92%
- residual activity [12]: 100%
- residual activity [13]: 92%
- residual activity [14]: 82%
- residual activity [15]: 65%
- residual activity [16]: 100%
- residual activity [17]: 93%
- residual activity [18]: 100%
- residual activity [19]: 100%
- residual activity [20]: 97%
- residual activity [21]: 91%
- residual activity [22]: 84%
- residual activity [23]: 100%
- residual activity [24]: 90%
- residual activity [25]: 65%
- residual activity [26]: 54%
- residual activity [27]: 85%
- residual activity [28]: 86%
- residual activity [29]: 89%
